Source: patent publication US5457030A, “Method and composition for determining antimicrobial susceptibility of the majority clinically significant Gram postitive organism” (MicroScan, Inc., priority 1993, dated 1995)
Converted amounts (≈) assume the structure as drawn. Like-named read-outs stand apart in the source and are kept apart here.

Assays:
Enterococcus faecalis [1] = assay: Percent fluorescence (growth) in wells containing antimicrobial agents, Example 1 (Table 6); assay type: cell-based
Method: (§1) A primary inoculum suspension of a bacterial isolate in saline-pluronic, equivalent to a 0.5 McFarland turbidity standard is prepared. The final inoculum suspension is prepared by diluting a 0.3 ml aliquot of the primary suspension in 25 ml of Rapid Pos Inoculum Broth (B1015-14, Baxter Diagnostics Inc., MicroScan Division, West Sacramento, Calif.). A 115 μl of the final inoculum is added to the growth compartment which contains dried material of fluorogenic enzyme substrates equivalent to 0.023 mM leucine-7-amido-4-methylcoumarin, 0.012 mM phenylalanine-7-amido-4-methylcoumarin and 0.058 mM methylumbelliferyl phosphate and 1.15 mM HEPES buffer at pH 7.0. The final inoculum is also added to a number of compartments containing dried material identical to that in the growth well and different concentrations of an antimicrobial agent. An aliquot of the final inoculum is also added to a compartment, containing only dried HEPES buffer, acting as a control. The inoculated multicompartment device (panel) is inserted in the autoSCAN®-W/A. The fluorescence of each compartment is measured at predetermined times and a Growth Index is calculated by dividing the fluorescence of the growth compartment by that of the negative control compartment.
^FL growth - ^FL control
(§2) If the value of the Growth Index is equal to or exceeds a specified value, the Minimum Inhibitory Concentration for every antimicrobial agent present in the multicompartment device is calculated. Otherwise the device is returned to its position and measured again at the next read time. The read times in this example are 3.5, 4.5, 5.5, 7.0, 8.0, 11.0, and 15.0 hours. For calculation of minimum inhibitory concentration, the percent fluorescence of compartments containing the different concentrations of the antimicrobial agent is calculated by subtracting from each compartment the fluorescence of the control well and dividing it by the delta fluorescence of the growth compartment, obtained by subtracting the fluorescence of the negative control compartment from the fluorescence of the growth compartment. The minimum inhibitory concentration is calculated using a mathematical model specific for each concentration range of the antimicrobial agent. Using a mathematical model based on discriminate functional analysis, the minimum inhibitory concentration of each antimicrobial agent, for the organism tested, can be determined. Utilization of a discriminate function analysis model in microbiological pattern recognition is described in S. Bascomb, Computers in Taxonomy and Systematics, p. 65-102 In T. N. Bryant and J. W. T. Wimpenny (Ed.), Computers in Microbiology, a Practical Approach (IRL Press, Oxford). In an alternative embodiment the minimum inhibitory concentration for each antimicrobial agent for the organism tested can be determined by a breakpoint or threshold method or linear regression analysis. J. McKie, et al., Antimicrobial Agents and Chemotherapy (1980) v. 17, 813-823.
(§3) In Example 1, the growth of Enterococcus faecalis in wells containing specified amounts of antimicrobial agents is estimated by measurement of fluorescence. In Table 6, the percent fluorescence at different concentrations of antimicrobial agents is reported. For example, 0.12, 0.25, 0.5, 1, 2, 4 and 8 μg/mL of ampicillin (Am) were present in the microdilution wells.
The numbers 105, 105, 67, 7, 6, 5, 6 are percent fluorescence values as calculated in […]. These figures are used to determine susceptibility according to the methods discussed on pages 12 and 13.

Enterococcus faecalis [2] = assay: Minimum inhibitory concentration determination, Example 1 (Table 7); assay type: cell-based
Method: as §1, §2, §3
In Table 7, the minimum inhibitory concentration for Example 1 are reported.

[3] = Enterococcus faecalis, read-out: percent fluorescence
[4] = Enterococcus faecalis, read-out: concentration at which organism was found to be susceptible
[5] = Enterococcus faecalis, read-out: minimum inhibitory concentration
[6] = Enterococcus faecalis, 4 μg/mL, read-out: percent fluorescence
[7] = Enterococcus faecalis, 8 μg/mL, read-out: percent fluorescence
[8] = Enterococcus faecalis, Table 7, Example 1, read-out: concentration at which organism was found to be susceptible
[9] = Table 7, Enterococcus faecalis, Example 1, read-out: minimum inhibitory concentration

CC[C@H]1OC(=O)[C@H](C)[C@@H](O[C@H]2C[C@@](C)(OC)[C@@H](O)[C@H](C)O2)[C@H](C)[C@@H](O[C@@H]2O[C@H](C)C[C@H](N(C)C)[C@H]2O)[C@](C)(O)C[C@@H](C)C(=O)[C@H](C)[C@@H](O)[C@]1(C)O [Erythromycin]
activity at 0.25 µg/mL (Enterococcus faecalis [1]; [3]): 59% | activity at 0.5 µg/mL (Enterococcus faecalis [1]; [3]): 9% | activity at 1 µg/mL (Enterococcus faecalis [1]; [3]): 5% | activity at 2 µg/mL (Enterococcus faecalis [1]; [3]): 5% | activity at 4 µg/mL (Enterococcus faecalis [1]; [3]): 4% | MIC (Enterococcus faecalis [2]; [4]): 4 µg/mL (≈ 5.45 µM) | MIC (Enterococcus faecalis [2]; [5]): 4 µg/mL (≈ 5.45 µM)

C[C@@H](O)[C@H]1C(=O)N2C(C(=O)O)=C(SCCN=CN)C[C@H]12 [Imipenem]
activity at 1 µg/mL (Enterococcus faecalis [1]; Enterococcus faecalis, 1 μg/mL, read-out: percent fluorescence): 65% | activity at 2 µg/mL (Enterococcus faecalis [1]; Enterococcus faecalis, 2 μg/mL, read-out: percent fluorescence): 5% | activity at 4 µg/mL (Enterococcus faecalis [1]; [6]): 5% | activity at 8 µg/mL (Enterococcus faecalis [1]; [7]): 5% | MIC (Enterococcus faecalis [2]; [8]): 4 µg/mL (≈ 13.4 µM) | MIC (Enterococcus faecalis [2]; [9]): 4 µg/mL (≈ 13.4 µM)

O=C1CN(/N=C/c2ccc([N+](=O)[O-])o2)C(=O)N1 [Nitrofurantoin]
activity at 32 µg/mL (Enterococcus faecalis [1]; Enterococcus faecalis, 32 μg/mL): 86% | activity at 46 µg/mL (Enterococcus faecalis [1]; Enterococcus faecalis, 46 μg/mL (printed 46Fd)): 21% | MIC (Enterococcus faecalis [2]; [8]): < 32 µg/mL | MIC (Enterococcus faecalis [2]; [9]): < 32 µg/mL

CCn1cc(C(=O)O)c(=O)c2cc(F)c(N3CCNCC3)cc21 [Norfloxacin]
activity at 4 µg/mL (Enterococcus faecalis [1]; [6]): 6% | activity at 8 µg/mL (Enterococcus faecalis [1]; [7]): 6% | MIC (Enterococcus faecalis [2]; [8]): < 4 µg/mL | MIC (Enterococcus faecalis [2]; [9]): < 4 µg/mL

Cc1onc(-c2ccccc2)c1C(=O)N[C@@H]1C(=O)N2[C@@H]1SC(C)(C)[C@@H]2C(=O)O [Oxacillin]
activity at 0.25 µg/mL (Enterococcus faecalis [1]; [3]): 103% | activity at 0.5 µg/mL (Enterococcus faecalis [1]; [3]): 98% | activity at 1 µg/mL (Enterococcus faecalis [1]; [3]): 100% | activity at 2 µg/mL (Enterococcus faecalis [1]; [3]): 99% | activity at 4 µg/mL (Enterococcus faecalis [1]; [3]): 95% | activity at 8 µg/mL (Enterococcus faecalis [1]; [3]): 90%

CC1(C)S[C@@H]2[C@H](NC(=O)Cc3ccccc3)C(=O)N2[C@H]1C(=O)O [Penicillin]
activity at 0.03 µg/mL (Enterococcus faecalis [1]; [3]): 99% | activity at 0.06 µg/mL (Enterococcus faecalis [1]; [3]): 104% | activity at 0.12 µg/mL (Enterococcus faecalis [1]; [3]): 105% | activity at 0.5 µg/mL (Enterococcus faecalis [1]; [3]): 105% | activity at 1 µg/mL (Enterococcus faecalis [1]; [3]): 93% | activity at 2 µg/mL (Enterococcus faecalis [1]; [3]): 12% | activity at 4 µg/mL (Enterococcus faecalis [1]; [3]): 7% | activity at 8 µg/mL (Enterococcus faecalis [1]; [3]): 7% | activity at 25 µg/mL (Enterococcus faecalis [1]; [3]): 105%

CO[C@H]1/C=C/O[C@@]2(C)Oc3c(C)c(O)c4c(O)c(c(/C=N/N5CCN(C)CC5)c(O)c4c3C2=O)NC(=O)/C(C)=C\C=C\[C@H](C)[C@H](O)[C@@H](C)[C@@H](O)[C@@H](C)[C@H](OC(C)=O)[C@@H]1C [Rifampin]
activity at 1 µg/mL (Enterococcus faecalis [1]; [3]): 58% | activity at 2 µg/mL (Enterococcus faecalis [1]; [3]): 21% | MIC (Enterococcus faecalis [2]; [4]): 2 µg/mL (≈ 2.43 µM) | MIC (Enterococcus faecalis [2]; [5]): 2 µg/mL (≈ 2.43 µM)

CN[C@@H]1[C@H](O[C@H]2[C@H](O[C@H]3[C@H](O)[C@@H](O)[C@H](N=C(N)N)[C@@H](O)[C@@H]3N=C(N)N)O[C@@H](C)[C@]2(O)C=O)O[C@@H](CO)[C@H](O)[C@H]1O [Streptomycin Synergy Screen]
percent fluorescence (Enterococcus faecalis [1]; synergy screen well): 5% | Streptomycin Synergy Screen result in Table 7 (Enterococcus faecalis [2]; Table 7, Enterococcus faecalis, Example 1): 5 | susceptibility to synergy screen (Enterococcus faecalis [2]; Table 7, Example 1): susceptible

CN(C)C1C(=O)C(C(N)=O)=C(O)C2(O)C(=O)C3=C(O)c4c(O)cccc4C(C)(O)C3CC12 (centres unmarked) [Tetracycline]
activity at 0.5 µg/mL (Enterococcus faecalis [1]; [3]): 91% | activity at 1 µg/mL (Enterococcus faecalis [1]; [3]): 85% | activity at 2 µg/mL (Enterococcus faecalis [1]; [3]): 79% | activity at 4 µg/mL (Enterococcus faecalis [1]; [3]): 71% | activity at 8 µg/mL (Enterococcus faecalis [1]; [3]): 62% | activity at 128 µg/mL (Enterococcus faecalis [1]; [3]): 37% | MIC (Enterococcus faecalis [2]; [4]): 128 µg/mL (≈ 288 µM) | MIC (Enterococcus faecalis [2]; [5]): 128 µg/mL (≈ 288 µM)

CN[C@H](CC(C)C)C(=O)N[C@H]1C(=O)N[C@@H](CC(N)=O)C(=O)N[C@H]2C(=O)N[C@H]3C(=O)N[C@H](C(=O)N[C@H](C(=O)O)c4cc(O)cc(O)c4-c4cc3ccc4O)[C@H](O)c3ccc(c(Cl)c3)Oc3cc2cc(c3O[C@@H]2O[C@H](CO)[C@@H](O)[C@H](O)[C@H]2O[C@H]2C[C@](C)(N)[C@H](O)[C@H](C)O2)Oc2ccc(cc2Cl)[C@H]1O [Vancomycin]
activity at 2 µg/mL (Enterococcus faecalis [1]; [3]): 5% | activity at 4 µg/mL (Enterococcus faecalis [1]; [3]): 5% | activity at 8 µg/mL (Enterococcus faecalis [1]; [3]): 5% | activity at 16 µg/mL (Enterococcus faecalis [1]; [3]): 2% | MIC (Enterococcus faecalis [2]; [4]): < 2 µg/mL | MIC (Enterococcus faecalis [2]; [5]): < 2 µg/mL

Gentamicin
percent fluorescence (Enterococcus faecalis [1]; 1 μg/mL): 105% | percent fluorescence (Enterococcus faecalis [1]; 2 μg/mL): 99% | percent fluorescence (Enterococcus faecalis [1]; 4 μg/mL): 95% | percent fluorescence (Enterococcus faecalis [1]; 6 μg/mL): 93% | percent fluorescence (Enterococcus faecalis [1]; 8 μg/mL): 93%
